Results published in patent US12692477B2, “Medium composition for culturing porcine pluripotent stem cells” (SPACE F CORP., priority 2018, dated 2026).

B1: activin A: activin A, signal molecule acting through the SMAD signal transduction system (protein, UniProt P08476 311-426, looked up)
Inhibin beta A chain: GLECDGKVNICCKKQFFVSFKDIGWNDWIIAPSGYHANYCEGECPSHIAGTSGSSLSFHSTVINHYRMRGHSPFANLKSCCVPTKLRPMSMLYYDDGQNIIKKDIQNMIVEECGCS

What was measured:
[1] = system: porcine pluripotent stem cells; assay: Influence of growth factor concentration in porcine pluripotent stem cell culture medium; format: cell-based; details: for Optimal concentration / optimal concentration: in culture medium
Description: The influence of a growth factor concentration in a porcine pluripotent stem cell culture medium established in the above-described example was analyzed, and the results are shown in Table 10. When the concentration of growth factors was low, the growth of stem cells was reduced, and when the concentration of growth factor was high, except for bFGF, cells were killed. The allowable concentration of the bFGF was 3.03×10^−4 to 6.06×10^−3 μM, and the optimal concentration was 1.21×10^−3 μM. The allowable concentration of the Activin A was 1.50×10^−4 to 5.40×10^−4 μM, and the optimal concentration was 3.85×10^−4 μM. The allowable concentration of the CHIR99021 was 0.5 to 2.50 μM, and the optimal concentration was 1.50 μM. The allowable concentration of the IWR-1 was 1.20 to 3.00 μM, and the optimal concentration was 2.50 μM.

[2] = system: porcine blastocysts (inner cell mass); assay: Culture of porcine blastocysts on feeder cells with signal molecule combinations in serum replacement medium; format: cell-based
Description: First, a culture medium including KSR, N2/B27, KSR+N2/B27, or KSR+LC was used to find a serum replacement suitable for the growth of porcine embryos. […] As a result, it was confirmed that the inner cell mass expressing SOX2 rapidly grew in the group treated with KSR and KSR+LC (FIG. 1). Second, for long-term culturing of the inner cell mass, signal molecules were treated in various combinations (Table 6 and Table 7).
The culturing was attempted by adding signal molecules to basal medium including KSR or KSR+LC. Porcine embryonic stein cells were established in a culture medium including FGF2, A, and 6-[[2-[[4-(2,4-Dichlorophenyl)-5-(5-methyl-1H-imidazol-2-yl)-2-pyrimidinyl]amino]ethyl]amino]-3-pyridinecarbonitrile (CHIR99021) in a culture solution including serum replacement 4 (Tables 6 and 7, FIG. 2). In addition, for the stabilization of CHIR99021, 4-(1,3,3a,4,7,7a-Hexahydro-1,3-dioxo-4,7-methano-2H-isoindol-2-yl)-N-8-quinolinyl-Benzamide (IWR-1) was added to establish the composition for long-term culturing and maintenance of porcine embryonic stem cells, as shown in Table 8 and Table 9, respectively.

Molecule | Optimal concentration [1] | optimal concentration [1] | Blastocyst initial growth rate (%) ([2]; serum replacement 1) | Sox2 positive rate of the initial population (%) ([2]; serum replacement 1) | Number of embryonic stem cell lines established in the long-term culture ([2]; serum replacement 1, 30 blastocysts) | Blastocyst initial growth rate (%) ([2]; serum replacement 4) | Sox2 positive rate of the initial population (%) ([2]; serum replacement 4) | Number of embryonic stem cell lines established in the long-term culture ([2]; serum replacement 4, 29 blastocysts) | Symptoms when exceeding the appropriate concentration [1]
O=C(Nc1cccc2cccnc12)c1ccc(N2C(=O)C3C4C=CC(C4)C3C2=O)cc1 (stereo not drawn) [IWR-1, 4-(1,3,3a,4,7,7a-Hexahydro-1,3-dioxo-4,7-methano-2H-isoindol-2-yl)-N-8-quinolinyl-Benzamide, reference compound] | 0.0025 mM | 2.50 µM | – | – | – | – | – | – | –
Cc1cnc(-c2cnc(NCCNc3ccc(C#N)cn3)nc2-c2ccc(Cl)cc2Cl)[nH]1 [CHIR99021, 6-[[2-[[4-(2,4-Dichlorophenyl)-5-(5-methyl-1H-imidazol-2-yl)-2-pyrimidinyl]amino]ethyl]amino]-3-pyridinecarbonitrile, reference compound] | 0.0015 mM | 1.50 µM | – | – | – | – | – | – | –
bFGF: basic fibroblast growth factor, signal molecule in the culture medium | 1.21e-06 mM | 0.00121 µM | 30.0 ± 5.8% | 30.0 ± 5.8% | 0 | 51.5 ± 4.6% | 44.8 ± 2.9% | 0 | –
B1 | 3.85e-07 mM | 0.000385 µM | – | – | – | – | – | – | Cell death
